Laboratory results taken from ChEMBL document CHEMBL5584335, “Investigating Active Site Binding of Ligands to High and Low Activity Carbonic Anhydrase Enzymes Using Native Mass Spectrometry” (J Med Chem, 2024).
Calls of active or inactive are those of the source. The calls are words filed in the database; no cut-off is given here.

Experiments:
Carbonic anhydrase 3 [1] = molecular target: T1, Carbonic anhydrase 3 (Homo sapiens, UniProt P07451); test: Binding affinity to human recombinant CA III active site expressed in Escherichia coli BL21 (DE3) pLysS cells at 18.18 uM at protein:compound ratio of 1:2 incubated for 30 mins by native mass spectrometry analysis
Carbonic anhydrase 3 [2] = molecular target: T1, Carbonic anhydrase 3; test: Binding affinity to human recombinant CA III assessed as inhibition constant

T1 sequence (P07451 whole entry): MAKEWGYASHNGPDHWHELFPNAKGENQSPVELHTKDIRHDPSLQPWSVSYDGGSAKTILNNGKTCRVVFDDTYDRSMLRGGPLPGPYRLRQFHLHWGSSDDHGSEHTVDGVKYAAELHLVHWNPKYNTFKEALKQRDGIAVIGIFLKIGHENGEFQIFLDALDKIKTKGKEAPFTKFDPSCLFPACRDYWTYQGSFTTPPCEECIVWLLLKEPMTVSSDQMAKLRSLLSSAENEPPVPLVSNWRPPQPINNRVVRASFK

Row | Compound | Activity (Carbonic anhydrase 3 [1]) | Ki (Carbonic anhydrase 3 [2]) [µM]
1 | CC1Cc2ccccc2N1NC(=O)c1ccc(Cl)c(S(N)(=O)=O)c1 (stereo unspecified) | inactive | –
2 | Cc1ccc(-c2cc(C(F)(F)F)nn2-c2ccc(S(N)(=O)=O)cc2)cc1 | inactive | –
3 | Cc1onc(-c2ccccc2)c1-c1ccc(S(N)(=O)=O)cc1 | inactive | –
4 | NS(=O)(=O)c1cc(C(=O)O)c(NCc2ccco2)cc1Cl | inactive | –
5 | NS(=O)(=O)c1ccc(N2CCCCS2(=O)=O)cc1 | inactive | –
6 | CCCCNc1cc(C(=O)O)cc(S(N)(=O)=O)c1Oc1ccccc1 [BUMETANIDE] | inactive | 3400
7 | NS(=O)(=O)c1cc2c(cc1Cl)NCNS2(=O)=O [HYDROCHLOROTHIAZIDE] | inactive | 790
8 | Cc1ccccc1N1C(=O)c2cc(S(N)(=O)=O)c(Cl)cc2NC1C (stereo unspecified) [METOLAZONE] | inactive | 610
